Among the data in patent US8623898B2, “Glycine transporter inhibiting substances” (Taisho Pharmaceutical Co., Ltd., priority 2009, dated 2014) are IC50 values, retold here.

Where two headings read alike, the source gives them in different places.

This experiment concerns the target T1, human type 1 glycine transporter (GlyT1) (Homo sapiens, UniProt P48067).
T1 construct: Used in the experiment were T98G cells (glioma cells) developing a human type 1 glycine transporter (GlyT1); endogenous in cells; host or cells: T98G human glioma cells
T1 sequence (P48067 1-706): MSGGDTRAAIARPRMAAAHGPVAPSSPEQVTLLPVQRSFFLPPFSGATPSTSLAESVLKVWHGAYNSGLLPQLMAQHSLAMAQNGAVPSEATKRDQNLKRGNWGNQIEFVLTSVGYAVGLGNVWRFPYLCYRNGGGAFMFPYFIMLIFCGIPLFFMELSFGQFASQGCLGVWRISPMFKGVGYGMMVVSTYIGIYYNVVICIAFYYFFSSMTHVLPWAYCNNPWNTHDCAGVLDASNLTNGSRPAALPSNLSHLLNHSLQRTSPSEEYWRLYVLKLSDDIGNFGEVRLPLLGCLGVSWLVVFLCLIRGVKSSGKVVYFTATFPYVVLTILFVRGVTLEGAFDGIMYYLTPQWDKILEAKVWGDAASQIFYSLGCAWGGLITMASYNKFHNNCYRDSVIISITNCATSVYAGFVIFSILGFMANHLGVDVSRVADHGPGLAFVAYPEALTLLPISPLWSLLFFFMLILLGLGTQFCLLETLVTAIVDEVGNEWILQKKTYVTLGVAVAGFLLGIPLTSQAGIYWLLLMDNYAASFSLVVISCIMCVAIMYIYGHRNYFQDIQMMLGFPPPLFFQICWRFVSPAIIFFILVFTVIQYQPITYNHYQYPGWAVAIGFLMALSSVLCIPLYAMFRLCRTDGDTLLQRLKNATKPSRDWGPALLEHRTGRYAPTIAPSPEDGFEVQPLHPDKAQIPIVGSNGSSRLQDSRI
As to the kind of experiment: Glycine uptake inhibition experiment ([3H] glycine uptake in T98G cells). The class given is cell-based. To be noted: [3H] glycine 250 nM, read-out: IC50 (glycine uptake inhibiting activity). The protocol: A glycine uptake inhibition experiment was conducted in accordance with the method described in Neuron, 8, 927-935, 1992. Used in the experiment were T98G cells (glioma cells) developing a human type 1 glycine transporter (GlyT1). The T98G cells were seeded in a 96-well plate at a density of 2.0×10^4 cells per well and cultured overnight in a CO2 incubator. The test substance was first dissolved in a 100% DMSO solution and then dissolved in a 10 mM HEPES buffer solution (pH 7.4) supplemented with 150 mM sodium chloride, 1 mM calcium chloride, 5 mM potassium chloride, 1 mM magnesium chloride, 10 mM glucose, and 0.2% bovine serum albumin. After removing the cell culture medium, the test substance was subjected to a 10-min pretreatment. Thereafter, the test substance and [^3H] glycine (final concentration: 250 nM) were added to the cells and reaction was performed at room temperature for 15 minutes. After the end of the reaction, the extracellular fluid was aspirated with a manifold to remove the excess marker glycine present outside of the cells; thereafter, the cells were lysed with an aqueous solution of 0.5 M sodium hydroxide. The glycine content in the cells was determined by measuring the radioactivity in the cell lysate with a liquid scintillation counter. With the amount of glycine uptake in the presence of 10 μM ALX5407 being referred to as the nonspecific uptake, the amount of specific uptake was calculated by subtracting the amount of nonspecific uptake from the total amount of uptake in the absence of 10 μM ALX5407. In addition, glycine uptake inhibiting activity (IC50) was calculated from an inhibition curve for the concentration of the test substance ranging from 10^−9 to 10^−5 M.

One may read the IC50 as the concentration needed to halve the response being measured. Regarding `O=C(c1nc[nH]n1)N(Cc1cccc(Cl)c1)C1CCOCC1` [Compound 28], the IC50 was not below 1000 nM.
As for `CCn1cnc(C(=O)N(Cc2cccc(OC(F)(F)F)c2)C2CCOCC2)n1` [Compound 31], the IC50 is less than 100 nM. Besides, the IC50 (15 min, room temperature) turned out to be 10.6 nM.
In the case of `Cc1nc(C(=O)N(Cc2cccc(OC(F)(F)F)c2)C2CCOCC2)c[nH]1` [Compound 8], the IC50 is not below 1000 nM.
Take `COCCn1cnc(C(=O)N(Cc2cccc(OC(F)(F)F)c2)C2CCOCC2)c1` [Compound 20]: the IC50 was not below 1000 nM.
Same read-out and setting: under `Cn1cnc(C(=O)N(Cc2cc(OC(F)(F)F)ccc2F)C2CCOCC2)n1` [Compound 63] stands not below 1000 nM.
As for `Cn1cnc(C(=O)N(Cc2ccc(F)c(-c3cccc(CCC#N)c3)c2)C2CCOCC2)c1` [Compound 101], the IC50 is less than 100 nM. Further, where the note is “15 min, room temperature”, the IC50 is 41.1 nM.
As to `Cn1cc(C(=O)N(Cc2cccc(OC(F)(F)F)c2)C2CCOCC2)nc1Br` [Compound 6], the IC50 is not below 1000 nM.
As for `Cc1ccc(-c2cc(CN(C(=O)c3cn(C)cn3)C3CCOCC3)ccc2F)cc1` [Compound 105], the IC50 is less than 100 nM. Moreover, the IC50 (15 min, room temperature) was 16.2 nM.
For the compound `Cn1cnc(C(=O)N(Cc2cccc(C(F)(F)F)c2)C2CCS(=O)(=O)CC2)c1` [Compound 117], the IC50 is not below 1000 nM.
As to `Cn1cnc(C(=O)N(Cc2ccc(F)c(Br)c2)C2CCOCC2)c1` [Compound 102], the IC50 is less than 100 nM. Further, under “15 min, room temperature”, the IC50 was determined as 3.8 nM.
`COC(=O)C(Cc1cccc(OC(F)(F)F)c1)N(C(=O)c1cn(C)cn1)C1CCOCC1` (stereo not shown) [Compound 107]: the IC50 is less than 100 nM. Also, the IC50 (15 min, room temperature) turned out to be 30 nM.
As to `Cn1cnc(C(=O)N(Cc2ccc(-c3ccccc3)cc2)C2CCOCC2)c1` [Compound 44], the IC50 is not below 1000 nM.
On the same count and under the same terms, under `O=C(c1nc[nH]n1)N(Cc1ccc(F)c(C(F)(F)F)c1)C1CCOCC1` [Compound 30] stands not below 1000 nM.
On to `Cn1cnc(C(=O)N(Cc2cc(F)cc(C(F)(F)F)c2)C2CCOCC2)c1` [Compound 42], for which the IC50 is less than 100 nM. Moreover, the IC50 (15 min, room temperature) is 26.9 nM.
On the same counts, the results for `CCCOc1cccc(-c2cc(CN(C(=O)c3ncn(C)n3)C3CCOCC3)ccc2F)c1` [Compound 93] are less than 100 nM and 41.8 nM.
For `Cn1cnc(C(=O)N(Cc2ccc(F)c(Br)c2)C2CCOCC2)n1` [Compound 57] the same measures were less than 100 nM and 45.9 nM.
On to `Cc1nc(C(=O)N(Cc2cccc(OC(F)(F)F)c2)C2CCOCC2)cn1C` [Compound 9], for which the IC50 was not below 1000 nM.
`Cn1cnc(C(=O)N(Cc2ccc(F)c(C(F)(F)F)c2)C2CCOCC2)c1` [Compound 25]: the IC50 was less than 100 nM. Moreover, the IC50 (15 min, room temperature) is 4.1 nM.
For `O=C(c1nc[nH]n1)N(Cc1ccc(F)c(Cl)c1)C1CCOCC1` [Compound 29], the 50% inhibitory concentration (IC50) was not below 1000 nM.
Take `Cn1cnc(C(=O)N(Cc2cccc(C(F)(F)F)c2)C2CCSCC2)c1` [Compound 113]: the IC50 was less than 100 nM. For the same compound, under “15 min, room temperature”, the IC50 worked out at 7.1 nM.
On the same counts, the results for `Cn1cnc(C(=O)N(Cc2cccc(OC(F)F)c2)C2CCOCC2)n1` [Compound 67] are less than 100 nM and 42.2 nM.
As to `Cn1cnc(C(=O)N(Cc2ccc(OC(F)(F)F)cc2)C2CCOCC2)n1` [Compound 52], the IC50 is not below 1000 nM.
As to `CCn1cnc(C(=O)N(Cc2cccc(OC(F)(F)F)c2)C2CCOCC2)c1` [Compound 13], the IC50 was less than 100 nM. The IC50 (15 min, room temperature) is 3.1 nM.
As for `Cn1cnc(C(=O)N(Cc2ccc(OC(F)F)c(OC(F)F)c2)C2CCOCC2)n1` [Compound 68], the IC50 is not below 1000 nM.
Same read-out and setting: under `O=C(c1nc[nH]n1)N(Cc1cccc(OC(F)(F)F)c1)C1CCOCC1` [Compound 19] stands not below 1000 nM.
In the case of `Cn1cnc(C(=O)N(Cc2cc(Cl)cc(OC(F)(F)F)c2)C2CCOCC2)n1` [Compound 73], the IC50 was less than 100 nM. For the same compound, where the note is “15 min, room temperature”, the IC50 worked out at 18.9 nM.
For `Cn1cnc(C(=O)N(CCc2ccccc2Cl)C2CCOCC2)n1` [Compound 47], the half-inhibitory concentration (IC50) was not below 1000 nM.
As to `Cn1cnc(C(=O)N(Cc2ccc(F)c(-c3ccc(C(F)(F)F)cc3)c2)C2CCOCC2)c1` [Compound 104], the IC50 is less than 100 nM. Further, the IC50 (15 min, room temperature) was 27.2 nM.
For `CCn1cnc(C(=O)N(Cc2ccc(F)c(C(F)(F)F)c2)C2CCOCC2)n1` [Compound 45] the same measures were less than 100 nM and 32.6 nM.
On the same counts, the results for `Cc1cc(CN(C(=O)c2cn(C)cn2)C2CCSCC2)cc(OC(F)(F)F)c1` [Compound 118] are less than 100 nM and 11.3 nM.
`CC1CC(N(Cc2ccc(F)c(Br)c2)C(=O)c2cn(C)cn2)CC(C)O1` (stereo not shown) [Compound 111]: the IC50 was not below 1000 nM.
As to `COc1cccc(CN(C(=O)c2cn(C)cn2)C2CCOCC2)c1` [Compound 23], the IC50 is less than 100 nM.
Consider `Cn1cnc(C(=O)N(CCOc2ccc(Cl)c(Cl)c2)C2CCOCC2)c1` [Compound 39], for which the IC50 is less than 100 nM.
Consider `COC(=O)c1cccc(-c2cc(CN(C(=O)c3ncn(C)n3)C3CCOCC3)ccc2F)c1` [Compound 77], for which the IC50 was less than 100 nM. In addition, the IC50 (15 min, room temperature) came to 10.5 nM.
On the same counts, the results for `Cn1cnc(C(=O)N(Cc2cccc(I)c2)C2CCOCC2)n1` [Compound 53] are less than 100 nM and 38.2 nM.
With `Cn1cnc(C(=O)N(C2CCOCC2)C(c2ccccc2)c2ccccc2)c1` [Compound 108], the IC50 was not below 1000 nM.
Turning to `Cn1cnc(C(=O)N(Cc2ccc(Cl)c(OC(F)(F)F)c2)C2CCOCC2)n1` [Compound 69], the IC50 was less than 100 nM. For the same compound, where the note is “15 min, room temperature”, the IC50 came out at 29.8 nM.
On the same counts, the results for `Cn1cnc(C(=O)N(Cc2ccc(F)c(-c3cccc(CO)c3)c2)C2CCOCC2)c1` [Compound 94] are less than 100 nM and 7.6 nM.
For `Cn1cnc(C(=O)N(Cc2ccc(F)c(-c3ccc(OC(F)(F)F)cc3)c2)C2CCSCC2)c1` [Compound 112] the same measures were less than 100 nM and 20.3 nM.
With `O=C(c1ncn(C(F)F)n1)N(Cc1cccc(OC(F)(F)F)c1)C1CCOCC1` [Compound 75], the IC50 is not below 1000 nM.
Turning to `Cn1cnc(C(=O)N(CCOc2ccc(Cl)cc2)C2CCOCC2)c1` [Compound 36], the IC50 was less than 100 nM.
In the case of `Cn1cnc(C(=O)N(Cc2ccc(F)c(-c3ccc(F)cc3)c2)C2CCSCC2)c1` [Compound 114], the IC50 is less than 100 nM. Moreover, the IC50 (15 min, room temperature) was 16.4 nM.
For `Cn1cnc(C(=O)N(Cc2ccc(F)c(-c3ccccc3F)c2)C2CCOCC2)n1` [Compound 88] the same measures were less than 100 nM and 45.1 nM.
In the case of `Cn1cnc(C(=O)N(Cc2ccc(F)c(-c3cccc(CO)c3)c2)C2CCOCC2)n1` [Compound 78], the IC50 is less than 100 nM.
As to `Cn1cnc(C(=O)N(CCC2CCOCC2)Cc2cccc(OC(F)(F)F)c2)c1` [Compound 1], the IC50 is less than 100 nM. Moreover, for the setting “15 min, room temperature”, the IC50 was found to be 19.5 nM.
As for `O=C(c1cn(CC(F)(F)F)cn1)N(Cc1cccc(OC(F)(F)F)c1)C1CCOCC1` [Compound 14], the IC50 was not below 1000 nM.
